Test results taken from US20230000869A1, “NOVEL ALK2 INHIBITORS AND METHODS FOR INHIBITING BMP SIGNALING” (The Brigham and Women's Hospital, Inc., priority 2017, published 2023).

Biological target: T1, Aldehyde Oxidase (AO) (Homo sapiens, UniProt Q06278)
T1 construct: tissue Frontage Laboratories (performed the study); host or cells: human liver cytosol (HLC), 2 mg/ml
T1 sequence (Q06278 1-1338): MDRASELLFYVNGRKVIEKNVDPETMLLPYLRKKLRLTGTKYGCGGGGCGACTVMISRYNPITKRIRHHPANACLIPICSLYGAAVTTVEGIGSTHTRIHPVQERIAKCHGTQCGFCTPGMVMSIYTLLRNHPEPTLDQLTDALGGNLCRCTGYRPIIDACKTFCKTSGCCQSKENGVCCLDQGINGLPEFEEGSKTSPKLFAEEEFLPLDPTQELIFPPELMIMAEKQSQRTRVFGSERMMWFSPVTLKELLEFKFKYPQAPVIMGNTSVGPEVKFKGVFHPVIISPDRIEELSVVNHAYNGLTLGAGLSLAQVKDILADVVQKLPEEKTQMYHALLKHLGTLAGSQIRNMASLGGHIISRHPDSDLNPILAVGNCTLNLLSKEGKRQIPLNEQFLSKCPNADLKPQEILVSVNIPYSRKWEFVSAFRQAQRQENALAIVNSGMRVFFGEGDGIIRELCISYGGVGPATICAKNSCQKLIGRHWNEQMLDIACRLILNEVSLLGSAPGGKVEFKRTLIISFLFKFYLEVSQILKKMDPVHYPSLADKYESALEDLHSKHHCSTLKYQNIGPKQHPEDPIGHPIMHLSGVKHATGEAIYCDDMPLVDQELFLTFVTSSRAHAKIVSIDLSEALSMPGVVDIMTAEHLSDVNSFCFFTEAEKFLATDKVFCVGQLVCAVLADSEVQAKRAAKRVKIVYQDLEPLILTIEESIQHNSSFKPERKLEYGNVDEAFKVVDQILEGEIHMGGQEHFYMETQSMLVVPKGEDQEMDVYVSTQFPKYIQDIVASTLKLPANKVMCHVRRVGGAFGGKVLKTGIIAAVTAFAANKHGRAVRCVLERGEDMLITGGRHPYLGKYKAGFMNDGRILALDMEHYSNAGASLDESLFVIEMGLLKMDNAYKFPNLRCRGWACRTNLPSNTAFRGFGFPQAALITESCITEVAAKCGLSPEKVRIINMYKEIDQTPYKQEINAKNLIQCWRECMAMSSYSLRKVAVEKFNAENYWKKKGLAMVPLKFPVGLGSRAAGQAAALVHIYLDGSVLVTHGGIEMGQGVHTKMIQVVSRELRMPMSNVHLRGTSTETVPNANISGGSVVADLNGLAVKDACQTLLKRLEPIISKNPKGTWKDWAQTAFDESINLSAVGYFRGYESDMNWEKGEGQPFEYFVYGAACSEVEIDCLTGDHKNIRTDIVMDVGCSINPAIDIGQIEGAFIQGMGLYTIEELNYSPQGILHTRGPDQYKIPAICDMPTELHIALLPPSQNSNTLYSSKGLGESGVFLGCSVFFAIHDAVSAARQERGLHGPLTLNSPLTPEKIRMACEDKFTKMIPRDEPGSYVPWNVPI
Test: Aldehyde oxidase (AO) oxidation study, metabolic stability in human liver cytosol
Type: in vitro ADME
Details: human liver cytosol 2 mg/ml, 1 μM substrate, 37° C.
Procedure: Experimental Procedure for Aldehyde Oxidase (AO) Oxidation Study (Frontage Laboratories (700 Pennsylvania Dr. Exton, Pa. 19341)
Determination of the of metabolic stability in human liver cytosol (HLC) and the identification of corresponding metabolites was done by incubating substrates (1 μM final concentration for metabolic stability or 10 μM final concentration for metabolite ID) with HLC (2 mg/ml, final concentration) in 100 mM potassium phosphate at pH 7.4. The reaction was initiated by adding HLC without preincubation. The mixture was then incubated at 37° C. for 1 h and samples were taken at 0, 30 and 60 min for analysis. The reaction was terminated by adding acetonitrile (ACN) (3×) followed by vortexing for 1 min then centrifuged. For the metabolic stability study, aliquotes of the supernatants were transferred to clean tubes and directly used for LC/MS/MS analysis. For the identification of metabolites, aliquots of supernatants were transferred to clean tubes and dried under a stream of N2. The residue was reconstituted in 30/70 (v/v) acetonitrile/water solution and injected onto LC/UV/MS system.
The instrument and method for the metabolic stability are as following: LC/MS/MS system: Agilent 1100 HPLC interfaced to Sciex API4000 mass spectrometer (ESI); HPLC column: ACE 3 C18-PFP, 50×2.1 mm, 5 μm. […]

c1ccc2c(-c3cnn4cc(-c5ccc(N6CCNCC6)cc5)cnc34)ccnc2c1 [TRND00262637-13]
30 minutes (%) (pH 7.4, sample at 30 min): 0.06% | 60 minutes (%) (pH 7.4, sample at 60 min): 0.02%
